The source of these data is patent publication US3983103A, “N-(Benzenesulfonyl)-erythromycylamine derivatives” (PLIVA Pharmaceutical and Chemical Works, priority 1973, dated 1976).

Structures are written as SMILES. Converted amounts (≈) assume the structure as drawn. A value given as a limit tells only on which side of the number the result lay.

What all share (type): cell-based
The test system of one assay is E. coli. In words: antibacterial spectrum in vitro (Table I), MIC.
In a further assay the test system is Pseudomonas aeruginosa. In words: antibacterial spectrum in vitro (Table I), MIC.
The next assay has as its system Klebsiella aerogenes. In words: antibacterial spectrum in vitro (Table I), MIC.
Assay [1] has as its system Streptococcus haemolyticus. In words: antibacterial spectrum in vitro (Table I), MIC.
Text: (§1) The above Table I illustrates antibacterial spectrum in vitro, using some pathogene microorganisms freshly isolated from patients.
In assay [2] the test system is Staphylococcus pyog. aureus. The assay can be described thus: antibacterial spectrum in vitro (Table I), MIC.
Text: as §1
In the next assay the test system is Enterococcus. In words: antibacterial spectrum in vitro (Table I), MIC.
The subject of the next assay is Diplococcus pneumoniae. In words: antibacterial spectrum in vitro (Table I), MIC.
Another assay relates to Proteus mirabilis. The assay can be described thus: antibacterial spectrum in vitro (Table I), MIC.
Assay [3] has as its system Streptococcus haemolyticus 69. In words: testing against a set of organisms (Table II), MIC. To be noted: Streptococcus haemolyticus 69, Table II.
Assay [4] has as its system Streptococcus haemolyticus 099. The assay can be described thus: testing against a set of organisms (Table II), MIC. The following applies: Streptococcus haemolyticus 099, Table II.
In assay [5] the test system is Staphylococcus aureus 736. In words: testing against a set of organisms (Table II), MIC. To be noted: Staphylococcus aureus 736, Table II.
In assay [6] the test system is Staphylococcus aureus 372. The assay can be described thus: testing against a set of organisms (Table II), MIC. To be noted: Staphylococcus aureus 372, Table II.
A further assay deals with Enterococcus 45. The assay can be described thus: testing against a set of organisms (Table II), MIC. To be noted: Enterococcus 45, Table II.
The subject of a further assay is Enterococcus 242. In words: testing against a set of organisms (Table II), MIC. To be noted: Enterococcus 242, Table II.
For the next assay, the system named is Enterococcus 146. In words: testing against a set of organisms (Table II), MIC. To be noted: Enterococcus 146, Table II.
Another assay deals with Enterococcus 325. The assay can be described thus: testing against a set of organisms (Table II), MIC. The following applies: Enterococcus 325, Table II.

Text for Diplococcus pneumoniae: as §1
Text for Klebsiella aerogenes: as §1
Text for Pseudomonas aeruginosa: as §1

As to `CC[C@H]1OC(=O)[C@H](C)[C@@H](O[C@H]2C[C@@](C)(OC)[C@@H](O)[C@H](C)O2)[C@H](C)[C@@H](O[C@@H]2O[C@H](C)C[C@H](N(C)C)[C@H]2O)[C@](C)(O)C[C@@H](C)C(=O)[C@H](C)[C@@H](O)[C@]1(C)O` [E, erythromycin, reference compound], the minimum inhibitory concentration (MIC) against E. coli was found to be 250 µg/mL (≈ 341 µM); against Pseudomonas aeruginosa, 500 µg/mL (≈ 681 µM); in the assay with Klebsiella aerogenes it was 500 µg/mL (≈ 681 µM); in [1] it was 31.2 µg/mL (≈ 42.5 µM); in [2] it was 62.5 µg/mL (≈ 85.2 µM); in the assay on Enterococcus, 31.2 µg/mL (≈ 42.5 µM). In addition, the minimal inhibitory concentration (MIC) in the assay with Diplococcus pneumoniae is 62.5 µg/mL (≈ 85.2 µM); with Proteus mirabilis it was 500 µg/mL (≈ 681 µM).
In the case of `CCC1OC(=O)C(C)C(OC2CC(C)(OC)C(O)C(C)O2)C(C)C(OC2OC(C)CC(N(C)C)C2O)C(C)(O)CC(C)C(NS(=O)(=O)c2ccc(NC(C)=O)cc2)C(C)C(O)C1(C)O` (stereo not drawn) [EAAc, N-(4-acetylamino-benzenesulfonyl)erythromycylamine], the MIC was found to be 250.0 µg/mL (≈ 268 µM) against Pseudomonas aeruginosa; 62.5 µg/mL (≈ 67 µM) against Klebsiella aerogenes; 0.45 µg/mL (≈ 0.483 µM) in assay [1]; 15.6 µg/mL (≈ 16.7 µM) in [2]; 1.9 µg/mL (≈ 2.04 µM) in the assay on Enterococcus; 1.9 µg/mL (≈ 2.04 µM) against Diplococcus pneumoniae. Besides, the MIC is 125 µg/mL (≈ 134 µM) with Proteus mirabilis; 0.9 µg/mL (≈ 0.965 µM) in assay [3]; 1.9 µg/mL (≈ 2.04 µM) in assay [4]; 31.2 µg/mL (≈ 33.5 µM) in assay [5]; 15.6 µg/mL (≈ 16.7 µM) in assay [6]; 125.0 µg/mL (≈ 134 µM) against Enterococcus 45. Besides, the MIC amounted to 62.5 µg/mL (≈ 67 µM) in the assay on Enterococcus 242, 31.2 µg/mL (≈ 33.5 µM) against Enterococcus 146 and 62.5 µg/mL (≈ 67 µM) with Enterococcus 325.
As for `CCC1OC(=O)C(C)C(OC2CC(C)(OC)C(O)C(C)O2)C(C)C(OC2OC(C)CC(N(C)C)C2O)C(C)(O)CC(C)C(NS(=O)(=O)c2ccc(Br)cc2)C(C)C(O)C1(C)O` (stereo not drawn) [EABr, N-(4-bromo-benzenesulfonyl)erythromycylamine], the minimum inhibitory concentration (MIC) with E. coli turned out to be 125.0 µg/mL (≈ 131 µM); in the assay on Pseudomonas aeruginosa it was 250.0 µg/mL (≈ 262 µM); with Klebsiella aerogenes, 62.5 µg/mL (≈ 65.5 µM); in assay [1] it was 0.9 µg/mL (≈ 0.943 µM); in assay [2] it was 31.2 µg/mL (≈ 32.7 µM); with Enterococcus it was 1.9 µg/mL (≈ 1.99 µM). Moreover, the minimum inhibitory concentration (MIC) with Diplococcus pneumoniae worked out at 3.9 µg/mL (≈ 4.09 µM); in the assay on Proteus mirabilis it was 250 µg/mL (≈ 262 µM); in [3], 0.9 µg/mL (≈ 0.943 µM); in [4] it was 0.9 µg/mL (≈ 0.943 µM); in assay [5], 7.8 µg/mL (≈ 8.18 µM); in assay [6], 3.9 µg/mL (≈ 4.09 µM). The MIC in the assay on Enterococcus 45 was found to be 7.8 µg/mL (≈ 8.18 µM); in the assay with Enterococcus 242, 3.9 µg/mL (≈ 4.09 µM); in the assay with Enterococcus 146 it was 3.9 µg/mL (≈ 4.09 µM); with Enterococcus 325 it was 3.9 µg/mL (≈ 4.09 µM).
Regarding `CCC1OC(=O)C(C)C(OC2CC(C)(OC)C(O)C(C)O2)C(C)C(OC2OC(C)CC(N(C)C)C2O)C(C)(O)CC(C)C(NS(=O)(=O)c2ccc(Cl)cc2)C(C)C(O)C1(C)O` (stereo not drawn) [EACl, N-(4-chloro-benzenesulfonyl)erythromycylamine], the MIC amounted to 62.5 µg/mL (≈ 68.7 µM) in the assay with E. coli; 250.0 µg/mL (≈ 275 µM) in the assay with Pseudomonas aeruginosa; 125 µg/mL (≈ 137 µM) in the assay on Klebsiella aerogenes; 0.9 µg/mL (≈ 0.989 µM) in assay [1]; 31.2 µg/mL (≈ 34.3 µM) in assay [2]; 3.9 µg/mL (≈ 4.29 µM) in the assay on Enterococcus. The minimum inhibitory concentration (MIC) was 1.9 µg/mL (≈ 2.09 µM) in the assay on Diplococcus pneumoniae; 250 µg/mL (≈ 275 µM) in the assay on Proteus mirabilis; 0.9 µg/mL (≈ 0.989 µM) in [3]; 0.9 µg/mL (≈ 0.989 µM) in assay [4]; 31.2 µg/mL (≈ 34.3 µM) in assay [5]; 3.9 µg/mL (≈ 4.29 µM) in [6]. Besides, the MIC in the assay with Enterococcus 45 was 3.9 µg/mL (≈ 4.29 µM); against Enterococcus 242, 3.9 µg/mL (≈ 4.29 µM); against Enterococcus 146, 7.8 µg/mL (≈ 8.58 µM); against Enterococcus 325, 7.8 µg/mL (≈ 8.58 µM).
`CCc1ccc(S(=O)(=O)NC2C(C)CC(C)(O)C(OC3OC(C)CC(N(C)C)C3O)C(C)C(OC3CC(C)(OC)C(O)C(C)O3)C(C)C(=O)OC(CC)C(C)(O)C(O)C2C)cc1` (stereo not drawn) [EAE, N-(4-ethyl-benzenesulfonyl)erythromycylamine]: the MIC in assay [3] is 0.9 µg/mL (≈ 0.996 µM); in [4], 0.9 µg/mL (≈ 0.996 µM); in assay [5], 31.2 µg/mL (≈ 34.5 µM); in assay [6], 7.8 µg/mL (≈ 8.64 µM); in the assay with Enterococcus 45, 7.8 µg/mL (≈ 8.64 µM); in the assay with Enterococcus 242 it was 3.9 µg/mL (≈ 4.32 µM). The results for the MIC with Enterococcus 146 and against Enterococcus 325 were 7.8 µg/mL (≈ 8.64 µM) and 3.9 µg/mL (≈ 4.32 µM), respectively.
On to `CCC1OC(=O)C(C)C(OC2CC(C)(OC)C(O)C(C)O2)C(C)C(OC2OC(C)CC(N(C)C)C2O)C(C)(O)CC(C)C(NS(=O)(=O)c2ccc(F)cc2)C(C)C(O)C1(C)O` (stereo not drawn) [EAF, N-(4-fluoro-benzenesulfonyl)erythromycylamine], for which the MIC in assay [3] was 3.9 µg/mL (≈ 4.37 µM); in assay [4], below 0.9 µg/mL; in assay [5], 31.2 µg/mL (≈ 34.9 µM); in assay [6], 15.6 µg/mL (≈ 17.5 µM); with Enterococcus 45 it was 7.8 µg/mL (≈ 8.73 µM); in the assay with Enterococcus 242, 3.9 µg/mL (≈ 4.37 µM). The MIC in the assay with Enterococcus 146 and in the assay on Enterococcus 325 was 7.8 µg/mL (≈ 8.73 µM) in each case.
On to `CCC1OC(=O)C(C)C(OC2CC(C)(OC)C(O)C(C)O2)C(C)C(OC2OC(C)CC(N(C)C)C2O)C(C)(O)CC(C)C(NS(=O)(=O)c2ccc(I)cc2)C(C)C(O)C1(C)O` (stereo not drawn) [EAI, N-(4-iodo-benzenesulfonyl)erythromycylamine], for which the MIC turned out to be 0.9 µg/mL (≈ 0.899 µM) in [3]; 0.9 µg/mL (≈ 0.899 µM) in assay [4]; 15.6 µg/mL (≈ 15.6 µM) in assay [5]; 3.9 µg/mL (≈ 3.9 µM) in assay [6]; 7.8 µg/mL (≈ 7.79 µM) in the assay on Enterococcus 45; 7.8 µg/mL (≈ 7.79 µM) in the assay on Enterococcus 242. Besides, the MIC against Enterococcus 146 and against Enterococcus 325 was 3.9 µg/mL (≈ 3.9 µM) each time.
Regarding `CCC(=O)Nc1ccc(S(=O)(=O)NC2C(C)CC(C)(O)C(OC3OC(C)CC(N(C)C)C3O)C(C)C(OC3CC(C)(OC)C(O)C(C)O3)C(C)C(=O)OC(CC)C(C)(O)C(O)C2C)cc1` (stereo not drawn) [EAPr, N-(4-propionylamino-benzenesulfonyl)erythromycylamine], the minimal inhibitory concentration (MIC) in assay [3] was 0.9 µg/mL (≈ 0.951 µM); in [4] it was 0.9 µg/mL (≈ 0.951 µM); in assay [5], 15.6 µg/mL (≈ 16.5 µM); in assay [6] it was 15.6 µg/mL (≈ 16.5 µM); against Enterococcus 45 it was 62.5 µg/mL (≈ 66.1 µM); against Enterococcus 242, 31.2 µg/mL (≈ 33 µM). The MIC in the assay on Enterococcus 146 amounted to 7.8 µg/mL (≈ 8.24 µM); in the assay with Enterococcus 325, 62.5 µg/mL (≈ 66.1 µM).
On to `CCC1OC(=O)C(C)C(OC2CC(C)(OC)C(O)C(C)O2)C(C)C(OC2OC(C)CC(N(C)C)C2O)C(C)(O)CC(C)C(NS(=O)(=O)c2ccc(C)cc2)C(C)C(O)C1(C)O` (stereo not drawn) [EAT, N-(4-methyl-benzenesulfonyl)erythromycylamine], for which the minimal inhibitory concentration (MIC) in the assay with E. coli is 62.2 µg/mL (≈ 70 µM); against Pseudomonas aeruginosa it was 250.0 µg/mL (≈ 281 µM); in the assay on Klebsiella aerogenes it was 250 µg/mL (≈ 281 µM); in assay [1], 0.9 µg/mL (≈ 1.01 µM); in [2], 31.2 µg/mL (≈ 35.1 µM); against Enterococcus it was 3.9 µg/mL (≈ 4.39 µM). The minimum inhibitory concentration (MIC) against Diplococcus pneumoniae amounted to 1.9 µg/mL (≈ 2.14 µM); with Proteus mirabilis it was 250 µg/mL (≈ 281 µM); in assay [3], 0.9 µg/mL (≈ 1.01 µM); in [4], 0.9 µg/mL (≈ 1.01 µM); in assay [5], 15.6 µg/mL (≈ 17.5 µM); in assay [6], 7.8 µg/mL (≈ 8.77 µM). The MIC is 7.8 µg/mL (≈ 8.77 µM) in the assay with Enterococcus 45, 3.9 µg/mL (≈ 4.39 µM) against Enterococcus 242, 7.8 µg/mL (≈ 8.77 µM) in the assay on Enterococcus 146 and 7.8 µg/mL (≈ 8.77 µM) in the assay with Enterococcus 325.
For `CCC1OC(=O)C(C)C(OC2CC(C)(OC)C(O)C(C)O2)C(C)C(OC2OC(C)CC(N(C)C)C2O)C(C)(O)CC(C)C(NS(=O)(=O)c2ccccc2C)C(C)C(O)C1(C)O` (stereo not drawn) [o-EAT, N-(2-methyl-benzenesulfonyl)erythromycylamine], the MIC in [3] was found to be 0.9 µg/mL (≈ 1.01 µM); in assay [4], 1.9 µg/mL (≈ 2.14 µM); in assay [5], 31.2 µg/mL (≈ 35.1 µM); in assay [6], 15.6 µg/mL (≈ 17.5 µM); in the assay with Enterococcus 45, 7.8 µg/mL (≈ 8.77 µM); against Enterococcus 242, 3.9 µg/mL (≈ 4.39 µM). In addition, the MIC with Enterococcus 146 stood at 15.6 µg/mL (≈ 17.5 µM); with Enterococcus 325, 7.8 µg/mL (≈ 8.77 µM).
